Source: patent US20130090305A1, “METHOD USING A DIETARY SUPPLEMENT FOR HEALING OR REGRESSING SYMPTOMS OF GASTROESOPHAGEAL REFLUX DISEASE, GASTRITIS AND ULCERS” (priority 2006, published 2013)

Experiments:
[1] = system: chronic GERD, ulcer of 6 cm in the esophagus; test: Case of a patient with chronic GERD and a 6 cm esophageal ulcer; format: in vivo, human; details: before the formulation; regurgitation and heartburn
[2] = system: spontaneous gastric ulcers; details: 4-week administration in the diet, young pigs; cited from earlier work
[3] = system: gastric acid secretion; details: cited from earlier work
[4] = system: nitric oxide biosynthesis; details: cited from earlier work

| SMILES | relief of symptoms with earlier treatments [1] | incidence of spontaneous gastric ulcers [2] | action on gastric acid secretion [3] | effect on nitric oxide biosynthesis [4] |
| --- | --- | --- | --- | --- |
| O=C([O-])O.[Na+] [baking soda] | Neither treatment produced even partial relief |  |  |  |
| COc1ccc2[nH]cc(CCNC(C)=O)c2c1 [melatonin, N-Acetyl-5-methoxytryptamine] |  | significantly reduced | inhibitory action | inhibits |
